Laboratory results as given in patent EP0679399B1, “Phosphate diesters for treatment of epidermis proliferative diseases” (Senju Pharmaceutical Co., Ltd., priority 1994, dated 1995).

Tests used:
[1] = Acute toxicity (LD50) in rats; conditions: rat, in vivo
Experimental: The present compounds are very safe with extremely low toxic potential and can, therefore, be used with advantage for the purposes of this invention. For example, the LD50 of L-ascorbyl DL-α-tocopheryl phosphate potassium (abbreviation: EPC-K): is ≥ 5 g/kg p.o. (rats) and ≥ 100 mg/kg i.v. (rats).

[2] = system: mouse model of psoriasis vulgaris; test: Mouse model of psoriasis vulgaris induced by TPA (ear epidermal weight gain, ear swelling rate); format: in vivo, ddY mice; conditions: for inhibited the epidermal weight gain: relative to control; for Epidermal weight % gain: right vs left auricle, 72 hours after TPA, mean±SD (n=6-9)
Experimental: The efficacy of EPC-K was assayed in the mouse model of psoriasis vulgaris using 12-o-tetradecanoylphorbol-13-acetate (briefly TPA).
Male 6-week-old ddY mice purchased from SLC Japan were used.
The entire external surface of the right auricle of each mouse was coated with 20 nmol/40 µl of TPA/methanol, and after 6, 24, 48 and 72 hours, the thickness of the auricle was measured with a dial thickness gauge. The ear swelling rate (%) was then calculated. At 72 hours after application of TPA, the mouse was sacrificed and the right and left auricles were respectively punched out with a 8 mm (dia.) punch. The epidermis of each auricle was peeled off and the epidermal weight was determined. Then, the % gain in epidermal weight of the right auricle relative to the left auricle was calculated.
Each test substance was extemporaneously blended with TPA-methanol and 40 µl of the mixture was applied to the external surface of the right auricle of each mouse. Then, a methanolic solution of the corresponding test substance, 40 µl, was applied once daily for 2 days.
Dunnet's test was used for statistical efficacy evaluation of the test substance.

| Compound | LD50 ([1]; iv) | LD50 ([1]; po) | inhibited the epidermal weight gain ([2]; 500 µg/auricle) | Epidermal weight % gain ([2]; 500 µg/auricle) | ear swelling rate ([2]; 1000 µg/auricle, compared with 25 µg betamethasone valerate (Fig. 1)) | inhibited the epidermal weight gain ([2]; 1000 µg/auricle) | Epidermal weight % gain ([2]; 1000 µg/auricle) | ear swelling rate ([2]; 500 and 1000 µg/auricle, 6, 24, 48 and 72 hours after TPA (Fig. 1)) | body weight (side effect) ([2]; 25 µg/auricle) | ear swelling rate ([2]; 25 µg/auricle, 6, 24, 48 and 72 hours after TPA (Fig. 1)) | inhibited the epidermal weight gain ([2]; 25 µg/auricle) | Epidermal weight % gain ([2]; 25 µg/auricle) |
| --- | --- | --- | --- | --- | --- | --- | --- | --- | --- | --- | --- | --- |
| Cc1c(C)c2c(c(C)c1OP(=O)(O)OC1=C(O)[C@@H]([C@@H](O)CO)OC1=O)CCC(C)(CCCC(C)CCCC(C)CCCC(C)C)O2 (mixture of isomers) [EPC-K, L-ascorbyl DL-α-tocopheryl phosphate potassium] | ≥ 100 mg/kg | ≥ 5000 mg/kg | 52.8% | 52.4±40.1 % | more potent inhibitory effect | 80.3% | 21.8±17.4 % | dose-dependent inhibitory effects at all points of time | – | – | – | – |
| CCCCC(=O)O[C@]1(C(=O)CO)[C@@H](C)C[C@H]2[C@@H]3CCC4=CC(=O)C=C[C@]4(C)[C@@]3(F)[C@@H](O)C[C@@]21C [Betamethasone valerate, reference compound] | – | – | – | – | – | – | – | – | induced body weight loss | fairly potent efficacy but its effect had been attenuated by 24 and 48 hours after application | 81.1% | 21.0±19.9 % |
